Assay results: patent publication US20090203783A1, “THERAPEUTIC AGENT FOR ACUTE CEREBRAL INFARCT” (ONO PHARMACEUTICAL CO., LTD., priority 2005, published 2009)

Experiments:
Type in all cases: in vivo, human
[1] = system: patients of acute cerebral infarction; assay: Example 2 clinical trial, modified Rankin Scale (mRS); details: 7 days
Procedure: (§1) Evaluation method: Symptoms of patients were evaluated in accordance with the aforementioned list of marks of NIH Stroke Scale, about 1 month after or about 3 months after the commencement of administration. (2) Modified Rankin Scale (mRS) Evaluation method: Symptoms of patients were scored by classifying the symptoms of patients into the following grades of from 0 to 5, about 1 month after or about 3 months after the commencement of administration. 0: No symptoms at all. 1: No significant disability despite symptoms; able to carry out all usual duties and activities. 2: Slight disability; unable to carry out all previous activities, but able to look after own affairs without assistance. 3: Moderate disability; requiring some help, but able to walk without assistance. 4: Moderately severe disability; unable to walk without assistance and unable to attend to own bodily needs without assistance. 5: Severe disability; bedridden, incontinent and requiring constant nursing care and attention.
(§2) As a clinical trial, a double blind placebo-controlled parallel group study was carried out under the following conditions using patients of acute cerebral infarction as the object.
(e) A patient whose period of time from the onset of cerebral infarction until commencement of administration is 72 hour or less;
(§3) A total of 7 times for one hour intravenous continuous administration at intervals of about 24 hours in each group (administration period: 7 days).
(§4) Symptoms of patients were evaluated after about 1 month or after about 3 months from the commencement of the administration, in accordance with the methods described in the aforementioned [EFFICACY EVALUATION ITEMS] of Example 1.

[2] = system: patients of acute cerebral infarction; assay: Example 3 clinical trial, safety (adverse events); details: 8 or 12 mg/kg/hr iv, 7 days
Procedure: as §2, §3
(§5) Frequency of adverse event and contents thereof (symptom, causal relation and the like)

[3] = system: patients of acute cerebral infarction; assay: Example 1 clinical trial, modified Rankin Scale (mRS); details: 10 mg/kg/hr iv, 5 days, after 3 months, administration 5.5 to 6 hours from onset
Procedure: (§6) As a clinical trial, a double blind placebo-controlled parallel group study was carried out under the following conditions with patients of acute cerebral infarction as the object.
(c) A patient who undergoes randomization by the study within 6 hours from the first infarction symptom and undergoes the first administration by the blind test (When the patient awoke under an infarction symptom which was not observed before sleeping, start of the infarction symptom is regarded as the started time of sleeping. When the started time is not clear, start of the infarction symptom is regarded as the time when the patient was lastly normal.);
(f) A patient defined as a score of from 11 to 22 on NIH Stroke Scale, within 1 hour before the first administration;
(§7) A total of 5 times for one hour intravenous continuous administration at intervals of about 24 hours in each group (administration period: 5 days).
as §1

[4] = system: patients of acute cerebral infarction; assay: Example 3 clinical trial, efficacy evaluation items; details: 7 days
Procedure: as §2, §3, §4

[5] = system: patients of acute cerebral infarction; assay: Example 1 clinical trial, safety (adverse events); details: 4 or 10 mg/kg/hr iv, 5 days
Procedure: as §6, §7, §5

[6] = system: patients of acute cerebral infarction; assay: Example 1 clinical trial, Stroke Impact Scale (SIS) items 1a-1d, 4a; details: about 3 months, 5 hours or more from onset
Procedure: as §6, §7
Based on the results of the above-mentioned efficacy evaluation items and safety evaluation items, therapeutic effect of the intravenous continuous administration of (2R)-2-propyloctanoic acid to cerebral infarction patients was evaluated. Additionally, in order to examine the therapeutic effect more in detail, improving effect of the intravenous continuous administration of (2R)-2-propyloctanoic acid for each of (a) [Arm strength], (b) [Grip], (c) strength of the legs [Leg], (d) strength of the ahead of the ankle [Ankle/foot], and (e) language [Naming] was evaluated after about 3 months from the commencement of administration, using the items 1a, 1b, 1c, Id and 4a of the Stroke Impact Scale (SIS). In this connection, the Stroke Impact Scale is a conventionally known evaluation method and can be obtained from an internet <URL: www.chrp.org/, www.strokecenter.org, www2.kumc.edu/coa/> and the like. Specifically, the evaluation of 1a, 1b, 1c and id is carried out by a mode of selecting any one of the answers, A lot of strength, Quite a bit of strength, Some strength, A little strength and No strength at all, for the following questions
and five scores, four scores, 3 scores, 2 scores and 1 score are given in response to the respective answers.
Additionally, the evaluation of 4a is carried out by a mode of selecting any one of the answers, Not difficult at all, A little difficult, Somewhat difficult and Very difficult and Extremely difficult, for the following questions
In this case, the group P represents a placebo administration group, and the group L represents a (2R)-2-propyloctanoic acid 4 mg/kg/hr administration group, and the group H represents a (2R)-2-propyloctanoic acid 10 mg/kg/hr administration group. The evaluation result of each item was shown by a form of “(the number of patients having an evaluation score of 4 or more)/(the number of patients evaluated)”.

[7] = system: patients of acute cerebral infarction; assay: Example 2 clinical trial, safety (adverse events); details: 0.4, 4 or 8 mg/kg/hr iv, 7 days
Procedure: as §2, §3, §5

**Q.** `CCCCCC[C@@H](CCC)C(=O)O` [(2R)-2-propyloctanoic acid] was tested. Which “ratio of mRS occupying 0 to 2” value ([1]; 0.4 mg/kg/hr iv, after 3 months, JCS I-1 to I-3 and NIH Stroke Scale 7 or more) did it give?
**A.** 48.1%

**Q.** And the “ratio of mRS occupying 0 to 2” value ([1]; 4 mg/kg/hr iv, after 3 months, JCS I-1 to I-3 and NIH Stroke Scale 7 or more)?
**A.** 47.9%

**Q.** What about the “ratio of mRS occupying 0 to 2” value ([1]; 8 mg/kg/hr iv, after 1 month) of the same compound?
**A.** 45.7%

**Q.** And the “ratio of mRS occupying 0 to 2” value ([1]; 8 mg/kg/hr iv, after 3 months)?
**A.** 58.1%

**Q.** What about the “ratio of mRS occupying 0 to 2” value ([1]; 8 mg/kg/hr iv, after 3 months, JCS I-1 to I-3 and NIH Stroke Scale 7 or more) of the same compound?
**A.** 63.0%

**Q.** And the “ratio of mRS occupying 0 to 2” value ([1]; 8 mg/kg/hr iv, after 3 months, patients with JCS I-1 to I-3 before administration)?
**A.** 69.1%

**Q.** And the “severe adverse event having a different frequency between drug group and placebo group” value [2]?
**A.** not found

**Q.** And the “side effect in which its frequency increases depending on the dose” value [2]?
**A.** not found

**Q.** And the “ratio of the number of patients whose mRS scores became 0 to 3” value (“ratio of the number … to 3” below) [3]?
**A.** 31.5%

**Q.** And the “ratio of the number … to 3” value ([3]; patients of less than 80 years, NIH Stroke Scale 11 to 18)?
**A.** 46.0%

**Q.** What about the “ratio of the number … to 3” value ([3]; patients of less than 80 years) of the same compound?
**A.** 39.0%

**Q.** And the “improving effects of the items shown in the efficacy evaluation items” value ([4]; 8 mg/kg/hr iv)?
**A.** excellent improving effects

**Q.** What about the “improving effects of the items shown in the efficacy evaluation items” value ([4]; 12 mg/kg/hr iv) of the same compound?
**A.** excellent improving effects

**Q.** What about the “severe adverse events having a different frequency between drug group and placebo group” value [5] of the same compound?
**A.** not found

**Q.** And the “side effect in which its frequency increases depending on the dose” value [5]?
**A.** not found

**Q.** What about the “SIS Ankle/foot: (number of patients having an evaluation score of 4 or more)/(number of patients evaluated)” value ([6]; Group H, 10 mg/kg/hr) of the same compound?
**A.** 60/100

**Q.** And the “SIS Ankle/foot: ratio of patients with evaluation score of 4 or more” value ([6]; Group H, 10 mg/kg/hr)?
**A.** (60%)

**Q.** What about the “SIS Arm strength: (number of patients having an evaluation score of 4 or more)/(number of patients evaluated)” value ([6]; Group H, 10 mg/kg/hr) of the same compound?
**A.** 44/100

**Q.** And the “SIS Arm strength: ratio of patients with evaluation score of 4 or more” value ([6]; Group H, 10 mg/kg/hr)?
**A.** (44%)

**Q.** And the “SIS Grip: (number of patients having an evaluation score of 4 or more)/(number of patients evaluated)” value ([6]; Group H, 10 mg/kg/hr)?
**A.** 46/100

**Q.** And the “SIS Grip: ratio of patients with evaluation score of 4 or more” value ([6]; Group H, 10 mg/kg/hr)?
**A.** (46%)

**Q.** What about the “SIS Leg: (number of patients having an evaluation score of 4 or more)/(number of patients evaluated)” value ([6]; Group H, 10 mg/kg/hr) of the same compound?
**A.** 59/100

**Q.** What about the “SIS Leg: ratio of patients with evaluation score of 4 or more” value ([6]; Group H, 10 mg/kg/hr) of the same compound?
**A.** (59%)

**Q.** What about the “SIS Naming: (number of patients having an evaluation score of 4 or more)/(number of patients evaluated)” value ([6]; Group H, 10 mg/kg/hr) of the same compound?
**A.** 65/100

**Q.** What about the “SIS Naming: ratio of patients with evaluation score of 4 or more” value ([6]; Group H, 10 mg/kg/hr) of the same compound?
**A.** (65%)

**Q.** And the “SIS Ankle/foot: (number of patients having an evaluation score of 4 or more)/(number of patients evaluated)” value ([6]; Group L, 4 mg/kg/hr)?
**A.** 39/88

**Q.** And the “SIS Ankle/foot: ratio of patients with evaluation score of 4 or more” value ([6]; Group L, 4 mg/kg/hr)?
**A.** (44%)

**Q.** And the “SIS Arm strength: (number of patients having an evaluation score of 4 or more)/(number of patients evaluated)” value ([6]; Group L, 4 mg/kg/hr)?
**A.** 34/88

**Q.** What about the “SIS Arm strength: ratio of patients with evaluation score of 4 or more” value ([6]; Group L, 4 mg/kg/hr) of the same compound?
**A.** (39%)

**Q.** What about the “SIS Grip: (number of patients having an evaluation score of 4 or more)/(number of patients evaluated)” value ([6]; Group L, 4 mg/kg/hr) of the same compound?
**A.** 36/88

**Q.** What about the “SIS Grip: ratio of patients with evaluation score of 4 or more” value ([6]; Group L, 4 mg/kg/hr) of the same compound?
**A.** (41%)

**Q.** And the “SIS Leg: (number of patients having an evaluation score of 4 or more)/(number of patients evaluated)” value ([6]; Group L, 4 mg/kg/hr)?
**A.** 46/88

**Q.** And the “SIS Leg: ratio of patients with evaluation score of 4 or more” value ([6]; Group L, 4 mg/kg/hr)?
**A.** (52%)

**Q.** What about the “SIS Naming: (number of patients having an evaluation score of 4 or more)/(number of patients evaluated)” value ([6]; Group L, 4 mg/kg/hr) of the same compound?
**A.** 58/88

**Q.** And the “SIS Naming: ratio of patients with evaluation score of 4 or more” value ([6]; Group L, 4 mg/kg/hr)?
**A.** (66%)

**Q.** And the “severe adverse event having a different frequency between drug group and placebo group” value [7]?
**A.** not found

**Q.** What about the “side effect in which its frequency increases depending on the dose” value [7] of the same compound?
**A.** not found
